Test results published in paper PMC12589708, “Structural determinants for red‐shifted absorption in higher‐plants Photosystem I” (The New Phytologist, 2025).

Experiments:
Test in all cases: cryo-EM structure
Type in all cases: binding
Lhca2 = target: T1, Lhca2 (Arabidopsis thaliana, UniProt Q9SYW8); details: PSI-LHCI supercomplex, 3.13 A; site L2
T1 construct: native LHCI antenna subunit within PSI-LHCI supercomplex purified from leaves (beta-DM, sucrose gradient)
T1 sequence (Q9SYW8 44-257): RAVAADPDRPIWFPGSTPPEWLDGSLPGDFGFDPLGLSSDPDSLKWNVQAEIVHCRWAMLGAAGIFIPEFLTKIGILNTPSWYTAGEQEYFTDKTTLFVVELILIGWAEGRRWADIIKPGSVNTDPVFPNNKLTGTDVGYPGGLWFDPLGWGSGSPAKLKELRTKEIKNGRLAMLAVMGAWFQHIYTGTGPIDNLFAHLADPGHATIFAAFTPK

Lhca1 = target: T2, Lhca1 (Arabidopsis thaliana, UniProt Q01667); details: PSI-LHCI supercomplex, 3.13 A; site L2
T2 construct: native LHCI antenna subunit within PSI-LHCI supercomplex purified from leaves (beta-DM, sucrose gradient)
T2 sequence (Q01667 36-241): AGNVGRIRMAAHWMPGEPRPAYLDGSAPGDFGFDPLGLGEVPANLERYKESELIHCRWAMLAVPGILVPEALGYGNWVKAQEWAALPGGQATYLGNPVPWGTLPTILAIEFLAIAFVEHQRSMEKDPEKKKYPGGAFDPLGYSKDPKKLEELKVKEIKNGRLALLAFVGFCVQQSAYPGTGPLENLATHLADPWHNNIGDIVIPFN

Lhca1‐Lhca4 = target: T3, Lhca1‐Lhca4 (Arabidopsis thaliana, UniProt P27521+Q01667); details: PSI-LHCI supercomplex, 3.13 A; Lhca1/Lhca4 interface near Chl a615, hydrogen bond to Lhca1 Ser210
T3 construct: heterodimer within native PSI-LHCI supercomplex purified from leaves; ligand at the subunit interface
T3 sequence (Q01667 36-241): T2 sequence (Q01667 36-241)
T3 sequence (P27521 53-251): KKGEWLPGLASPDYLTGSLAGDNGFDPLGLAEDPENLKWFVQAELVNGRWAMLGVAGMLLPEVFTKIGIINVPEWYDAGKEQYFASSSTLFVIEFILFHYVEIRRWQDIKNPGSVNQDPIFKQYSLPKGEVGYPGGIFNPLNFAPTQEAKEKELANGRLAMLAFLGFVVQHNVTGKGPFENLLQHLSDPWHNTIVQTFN

| Structure (SMILES) | cryo-EM structure (Lhca2) | cryo-EM structure (Lhca1) | cryo-EM structure (Lhca1‐Lhca4) |
| --- | --- | --- | --- |
| CC(/C=C/C=C(C)/C=C/[C@@]12O[C@]1(C)C[C@@H](O)CC2(C)C)=C\C=C\C=C(C)\C=C\C=C(C)\C=C\[C@@]12O[C@]1(C)C[C@@H](O)CC2(C)C [violaxanthin] | significantly higher for Lhca3 and Lhca4 than for Lhca1 and Lhca2 | Chl a603–Vio L2 coupling were significantly higher for Lhca3 and Lhca4 than for Lhca1 | – |
| CC1=C[C@H](O)CC(C)(C)[C@H]1/C=C/C(C)=C/C=C/C(C)=C/C=C/C=C(C)/C=C/C=C(C)/C=C/C1=C(C)C[C@@H](O)CC1(C)C [lutein] | – | – | The Lut was situated at the interface between Lhca1 and Lhca4 |
